Results reported in ChEMBL document CHEMBL1143380, “N-[6-amino-2-(heteroaryl)pyrimidin-4-yl]acetamides as A2A receptor antagonists with improved drug like properties and in vivo efficacy” (J Med Chem, 2009).
Converted amounts (≈) assume the structure as drawn.

Columns and labels:
[1] = tested on: Rattus norvegicus; assay: Inhibition of haloperidol-induced catalepsy in rat assessed as reduction in descent latency at 10 mg/kg, po after 2 hrs; assay type: organism-based; design: dose 10 mg/kg, route oral; settings: in vivo
[2] = target: Cytochrome P450 2C9 (Homo sapiens, UniProt P11712); assay: Inhibition of CYP2C9; assay type: ADME
[3] = target: Cytochrome P450 2D6 (Homo sapiens, UniProt P10635); assay: Inhibition of CYP2D6; assay type: ADME
[4] = Ratio of drug level in brain to plasma in rat at 3 mg/kg, po after 2 hrs; assay type: ADME, organism-based; design: dose 3 mg/kg, route oral; settings: brain and plasma
[5] = Tmax in rat at 10 mg/kg, po; assay type: ADME, organism-based; design: dose 10 mg/kg, route oral; settings: in vivo
[6] = tested on: Caco-2; assay: Ratio of permeability from apical to basolateral side over basolateral to apical side in human Caco-2 cells; assay type: ADME, cell-based
[7] = Plasma concentration in rat at 10 mg/kg, po after 2 hrs; assay type: ADME, organism-based; design: dose 10 mg/kg, route oral
[8] = Drug level in rat brain at 10 mg/kg, po after 2 hrs; assay type: ADME, organism-based; design: dose 10 mg/kg, route oral; settings: read-out: Drug uptake
[9] = Plasma concentration in rat at 10 mg/kg, po after 1 hr; assay type: ADME, organism-based; design: dose 10 mg/kg, route oral
[10] = Ratio of drug level in brain to plasma in rat at 10 mg/kg, po after 2 hrs; assay type: ADME, organism-based; design: dose 10 mg/kg, route oral; settings: brain and plasma
[11] = Drug level in rat brain at 10 mg/kg, po after 4 hrs; assay type: ADME, organism-based; design: dose 10 mg/kg, route oral; settings: read-out: Drug uptake
[12] = Solubility at pH 7.4; assay type: physicochemical; settings: buffer
[13] = target: T1, Adenosine receptor A2a (Homo sapiens, UniProt P29274); assay: Antagonist activity at human adenosine A2A receptor assessed as inhibition of CGS-21680-stimulated cAMP production; assay type: functional
[14] = Lipophilicity, log D of the compound; assay type: physicochemical; settings: octanol/water
[15] = Ratio of drug level in brain to plasma in rat at 10 mg/kg, po after 4 hrs; assay type: ADME, organism-based; design: dose 10 mg/kg, route oral; settings: brain and plasma, read-out: BPR
[16] = target: Cytochrome P450 3A4 (Homo sapiens, UniProt P08684); assay: Inhibition of CYP3A4; assay type: ADME
[17] = target: Cytochrome P450 2C19 (Homo sapiens, UniProt P33261); assay: Inhibition of CYP2C19; assay type: ADME
[18] = Drug level in rat brain at 3 mg/kg, po after 2 hrs; assay type: ADME, organism-based; design: dose 3 mg/kg, route oral; settings: read-out: Drug uptake
[19] = Plasma concentration in rat at 30 mg/kg, po after 2 hrs; assay type: ADME, organism-based; design: dose 30 mg/kg, route oral
[20] = Ratio of drug level in brain to plasma in rat at 30 mg/kg, po after 2 hrs; assay type: ADME, organism-based; design: dose 30 mg/kg, route oral; settings: brain and plasma
[21] = target: T2, Adenosine receptor A2b (Homo sapiens, UniProt P29275); assay: Inhibition of human adenosine A2B receptor
T2 sequence (P29275 whole entry): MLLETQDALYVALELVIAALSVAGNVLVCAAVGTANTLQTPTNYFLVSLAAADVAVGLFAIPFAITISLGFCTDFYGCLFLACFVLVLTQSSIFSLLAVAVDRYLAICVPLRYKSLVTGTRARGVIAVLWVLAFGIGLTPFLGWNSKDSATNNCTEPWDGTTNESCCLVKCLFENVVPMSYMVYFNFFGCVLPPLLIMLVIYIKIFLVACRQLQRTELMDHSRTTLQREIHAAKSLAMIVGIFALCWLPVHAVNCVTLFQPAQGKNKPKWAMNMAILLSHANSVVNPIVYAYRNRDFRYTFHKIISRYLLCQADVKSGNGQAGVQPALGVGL

[22] = target: hERG (KCNH2) (Homo sapiens, UniProt Q12809); assay: Inhibition of human ERG at 10 uM by patch clamp technique
[23] = Drug level in rat brain at 30 mg/kg, po after 2 hrs; assay type: ADME, organism-based; design: dose 30 mg/kg, route oral; settings: read-out: Drug uptake
[24] = tested on: Rattus norvegicus; assay: Inhibition of haloperidol-induced catalepsy in rat assessed as reduction in descent latency at 30 mg/kg, po after 2 hrs; assay type: organism-based; design: dose 30 mg/kg, route oral; settings: in vivo
[25] = Drug level in rat brain at 10 mg/kg, po after 1 hr; assay type: ADME, organism-based; design: dose 10 mg/kg, route oral; settings: read-out: Drug uptake
[26] = Ratio of drug level in brain to plasma in rat at 10 mg/kg, po after 1 hr; assay type: ADME, organism-based; design: dose 10 mg/kg, route oral; settings: brain and plasma, read-out: BPR
[27] = target: T3, Adenosine receptor A3 (Homo sapiens, UniProt P0DMS8); assay: Inhibition of human adenosine A3 receptor
T3 sequence (P0DMS8 whole entry): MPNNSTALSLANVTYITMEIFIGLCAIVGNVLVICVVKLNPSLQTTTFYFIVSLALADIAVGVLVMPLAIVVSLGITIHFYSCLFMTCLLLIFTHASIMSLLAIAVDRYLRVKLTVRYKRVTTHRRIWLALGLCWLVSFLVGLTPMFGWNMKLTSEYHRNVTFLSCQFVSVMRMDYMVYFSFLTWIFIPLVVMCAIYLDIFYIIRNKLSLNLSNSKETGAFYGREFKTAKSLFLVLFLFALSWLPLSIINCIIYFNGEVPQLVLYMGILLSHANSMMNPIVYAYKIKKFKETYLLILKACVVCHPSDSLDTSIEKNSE

[28] = Plasma concentration in rat at 3 mg/kg, po after 2 hrs; assay type: ADME, organism-based; design: dose 3 mg/kg, route oral
[29] = target: T1, Adenosine receptor A2a; assay: Displacement of [3H]ZM241385 from human adenosine A2A receptor expressed in HEK293 cells; assay type: cell-based
[30] = target: T4, Adenosine receptor A1 (Homo sapiens, UniProt P30542); assay: Displacement of [3H]DPCPX from human adenosine A1 receptor expressed in HEK293 cells; assay type: cell-based
T4 sequence (P30542 whole entry): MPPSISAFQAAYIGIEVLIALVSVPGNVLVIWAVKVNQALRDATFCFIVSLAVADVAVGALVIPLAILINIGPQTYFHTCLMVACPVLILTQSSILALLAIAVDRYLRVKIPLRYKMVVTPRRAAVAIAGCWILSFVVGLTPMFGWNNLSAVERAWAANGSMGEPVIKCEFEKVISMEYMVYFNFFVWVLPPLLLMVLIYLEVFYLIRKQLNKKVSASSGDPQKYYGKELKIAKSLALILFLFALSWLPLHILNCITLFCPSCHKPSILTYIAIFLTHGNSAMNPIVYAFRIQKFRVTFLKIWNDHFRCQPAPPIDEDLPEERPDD

[31] = Permeability across human Caco-2 cells; assay type: ADME, cell-based; settings: read-out: permeability
[32] = Plasma concentration in rat at 10 mg/kg, po after 4 hrs; assay type: ADME, organism-based; design: dose 10 mg/kg, route oral
[33] = target: T5, Cytochrome P450 1A2 (Homo sapiens, UniProt P05177); assay: Inhibition of CYP1A2; assay type: ADME
T5 sequence (P05177 whole entry): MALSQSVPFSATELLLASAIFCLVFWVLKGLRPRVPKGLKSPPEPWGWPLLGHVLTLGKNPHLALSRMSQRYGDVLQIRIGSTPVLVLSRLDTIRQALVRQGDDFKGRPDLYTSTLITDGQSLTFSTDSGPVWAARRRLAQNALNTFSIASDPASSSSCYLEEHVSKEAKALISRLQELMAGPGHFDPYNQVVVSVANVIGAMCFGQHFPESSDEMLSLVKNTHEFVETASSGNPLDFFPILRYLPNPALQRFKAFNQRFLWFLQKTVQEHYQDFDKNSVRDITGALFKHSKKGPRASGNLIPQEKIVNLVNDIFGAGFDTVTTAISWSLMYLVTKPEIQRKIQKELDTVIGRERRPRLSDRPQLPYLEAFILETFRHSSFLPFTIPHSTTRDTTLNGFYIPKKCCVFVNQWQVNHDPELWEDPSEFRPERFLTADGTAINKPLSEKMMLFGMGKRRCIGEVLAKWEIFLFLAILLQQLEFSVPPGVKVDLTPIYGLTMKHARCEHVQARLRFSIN

[34] = target: Adenosine receptor A2a (Rattus norvegicus, UniProt P30543); assay: Displacement of [3H]ZM241385 from rat adenosine A2A receptor expressed in CHO cells; assay type: cell-based
[35] = tested on: Rattus norvegicus; assay: Potentiation of […]-induced rotational behavior in unilateral 6-hydroxydopamine lesioned po dosed rat after 5 hrs; assay type: ADME, organism-based; settings: in vivo

T1 sequence (P29274 whole entry): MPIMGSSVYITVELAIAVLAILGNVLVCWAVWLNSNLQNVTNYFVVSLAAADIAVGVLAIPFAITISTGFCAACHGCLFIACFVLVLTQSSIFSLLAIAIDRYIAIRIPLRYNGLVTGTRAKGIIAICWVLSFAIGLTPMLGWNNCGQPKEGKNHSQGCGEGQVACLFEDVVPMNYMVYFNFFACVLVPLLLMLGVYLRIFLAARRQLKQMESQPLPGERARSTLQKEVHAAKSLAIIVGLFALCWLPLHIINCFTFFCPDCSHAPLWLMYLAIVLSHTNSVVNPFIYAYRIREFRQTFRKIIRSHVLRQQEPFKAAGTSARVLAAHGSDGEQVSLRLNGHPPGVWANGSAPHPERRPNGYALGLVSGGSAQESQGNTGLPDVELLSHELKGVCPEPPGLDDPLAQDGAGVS
Cytochrome P450 3A4, sequence (P08684 whole entry): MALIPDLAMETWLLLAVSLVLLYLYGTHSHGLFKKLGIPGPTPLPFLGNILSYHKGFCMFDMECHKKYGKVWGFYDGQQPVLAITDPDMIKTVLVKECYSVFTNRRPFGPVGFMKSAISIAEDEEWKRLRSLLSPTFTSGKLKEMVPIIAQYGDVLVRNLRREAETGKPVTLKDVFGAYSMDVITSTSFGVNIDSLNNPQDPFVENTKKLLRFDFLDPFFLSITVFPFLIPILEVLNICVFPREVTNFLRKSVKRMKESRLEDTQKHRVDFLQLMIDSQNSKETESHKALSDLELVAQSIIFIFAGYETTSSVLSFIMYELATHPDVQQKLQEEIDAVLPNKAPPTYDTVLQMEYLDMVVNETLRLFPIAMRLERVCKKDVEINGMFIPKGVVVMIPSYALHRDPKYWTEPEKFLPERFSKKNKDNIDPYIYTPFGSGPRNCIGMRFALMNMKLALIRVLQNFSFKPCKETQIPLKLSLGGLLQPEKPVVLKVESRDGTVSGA
hERG (KCNH2), sequence (Q12809 whole entry): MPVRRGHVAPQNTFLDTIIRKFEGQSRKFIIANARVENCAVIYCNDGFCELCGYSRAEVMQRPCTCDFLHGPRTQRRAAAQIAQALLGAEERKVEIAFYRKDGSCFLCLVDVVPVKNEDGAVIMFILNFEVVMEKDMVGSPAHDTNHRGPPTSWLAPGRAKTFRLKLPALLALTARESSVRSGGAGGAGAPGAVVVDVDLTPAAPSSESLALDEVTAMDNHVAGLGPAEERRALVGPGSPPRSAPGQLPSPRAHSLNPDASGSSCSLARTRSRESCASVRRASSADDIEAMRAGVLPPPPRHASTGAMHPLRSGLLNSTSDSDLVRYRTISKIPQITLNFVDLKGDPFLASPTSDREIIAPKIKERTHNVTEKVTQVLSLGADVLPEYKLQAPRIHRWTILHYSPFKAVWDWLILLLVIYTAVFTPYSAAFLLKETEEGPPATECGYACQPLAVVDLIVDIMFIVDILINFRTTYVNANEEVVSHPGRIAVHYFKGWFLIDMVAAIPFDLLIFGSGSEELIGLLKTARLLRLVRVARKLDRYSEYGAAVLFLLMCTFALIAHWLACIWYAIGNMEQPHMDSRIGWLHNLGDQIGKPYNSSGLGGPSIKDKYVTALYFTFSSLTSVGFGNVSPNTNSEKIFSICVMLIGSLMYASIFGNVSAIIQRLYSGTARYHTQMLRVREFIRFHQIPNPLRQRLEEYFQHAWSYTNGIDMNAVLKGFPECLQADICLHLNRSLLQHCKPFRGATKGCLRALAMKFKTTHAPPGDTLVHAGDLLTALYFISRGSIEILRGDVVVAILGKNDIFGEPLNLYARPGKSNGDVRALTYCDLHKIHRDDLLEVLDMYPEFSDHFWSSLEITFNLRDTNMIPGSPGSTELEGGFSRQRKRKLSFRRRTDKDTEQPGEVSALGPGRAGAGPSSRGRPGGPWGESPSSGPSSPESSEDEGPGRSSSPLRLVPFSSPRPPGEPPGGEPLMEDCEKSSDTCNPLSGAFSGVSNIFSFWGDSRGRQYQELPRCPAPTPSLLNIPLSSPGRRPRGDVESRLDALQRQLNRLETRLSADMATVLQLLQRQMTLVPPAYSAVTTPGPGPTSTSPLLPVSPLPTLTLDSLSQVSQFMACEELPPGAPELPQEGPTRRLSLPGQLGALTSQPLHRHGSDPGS
Cytochrome P450 2C9, sequence (P11712 whole entry): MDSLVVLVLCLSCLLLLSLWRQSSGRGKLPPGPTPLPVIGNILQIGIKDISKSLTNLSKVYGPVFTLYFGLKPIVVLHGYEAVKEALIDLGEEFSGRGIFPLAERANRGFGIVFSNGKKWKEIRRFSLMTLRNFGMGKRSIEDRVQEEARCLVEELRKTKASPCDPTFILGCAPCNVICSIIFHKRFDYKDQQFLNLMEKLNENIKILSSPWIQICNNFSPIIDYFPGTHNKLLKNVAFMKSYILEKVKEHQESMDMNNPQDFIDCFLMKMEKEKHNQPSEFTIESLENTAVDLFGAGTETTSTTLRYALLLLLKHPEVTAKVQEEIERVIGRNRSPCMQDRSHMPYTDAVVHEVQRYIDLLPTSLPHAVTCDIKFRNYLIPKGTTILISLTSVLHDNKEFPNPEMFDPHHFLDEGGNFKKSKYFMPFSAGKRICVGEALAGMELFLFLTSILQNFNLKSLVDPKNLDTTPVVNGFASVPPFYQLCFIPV
Cytochrome P450 2C19, sequence (P33261 whole entry): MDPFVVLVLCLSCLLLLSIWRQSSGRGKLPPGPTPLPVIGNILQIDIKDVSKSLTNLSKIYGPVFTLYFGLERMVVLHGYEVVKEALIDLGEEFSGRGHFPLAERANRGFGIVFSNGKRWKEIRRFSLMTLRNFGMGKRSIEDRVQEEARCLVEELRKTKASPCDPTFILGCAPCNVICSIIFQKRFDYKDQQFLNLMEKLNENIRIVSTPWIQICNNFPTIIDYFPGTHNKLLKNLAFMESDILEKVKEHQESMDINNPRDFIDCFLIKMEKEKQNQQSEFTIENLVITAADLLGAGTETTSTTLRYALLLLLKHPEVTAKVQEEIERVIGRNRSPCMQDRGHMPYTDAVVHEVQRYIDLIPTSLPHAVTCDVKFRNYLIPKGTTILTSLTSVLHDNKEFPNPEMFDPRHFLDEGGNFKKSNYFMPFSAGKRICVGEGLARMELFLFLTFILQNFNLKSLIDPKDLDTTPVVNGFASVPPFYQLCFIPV
Cytochrome P450 2D6, sequence (P10635 whole entry): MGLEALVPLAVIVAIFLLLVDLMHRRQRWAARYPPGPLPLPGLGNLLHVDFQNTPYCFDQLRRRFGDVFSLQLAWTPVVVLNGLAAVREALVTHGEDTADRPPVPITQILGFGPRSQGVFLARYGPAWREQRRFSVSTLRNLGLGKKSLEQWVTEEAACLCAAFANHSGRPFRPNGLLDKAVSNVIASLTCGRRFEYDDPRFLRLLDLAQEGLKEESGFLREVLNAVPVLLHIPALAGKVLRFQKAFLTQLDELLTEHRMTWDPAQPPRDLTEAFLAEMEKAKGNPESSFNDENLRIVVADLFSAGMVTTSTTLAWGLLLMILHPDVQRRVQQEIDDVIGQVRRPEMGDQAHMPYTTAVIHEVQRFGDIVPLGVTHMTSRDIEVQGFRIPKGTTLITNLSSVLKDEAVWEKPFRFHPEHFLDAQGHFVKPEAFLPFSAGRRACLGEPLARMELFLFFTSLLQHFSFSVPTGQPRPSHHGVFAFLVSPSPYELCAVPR
Adenosine receptor A2a (Rattus norvegicus, UniProt P30543), sequence (P30543 whole entry): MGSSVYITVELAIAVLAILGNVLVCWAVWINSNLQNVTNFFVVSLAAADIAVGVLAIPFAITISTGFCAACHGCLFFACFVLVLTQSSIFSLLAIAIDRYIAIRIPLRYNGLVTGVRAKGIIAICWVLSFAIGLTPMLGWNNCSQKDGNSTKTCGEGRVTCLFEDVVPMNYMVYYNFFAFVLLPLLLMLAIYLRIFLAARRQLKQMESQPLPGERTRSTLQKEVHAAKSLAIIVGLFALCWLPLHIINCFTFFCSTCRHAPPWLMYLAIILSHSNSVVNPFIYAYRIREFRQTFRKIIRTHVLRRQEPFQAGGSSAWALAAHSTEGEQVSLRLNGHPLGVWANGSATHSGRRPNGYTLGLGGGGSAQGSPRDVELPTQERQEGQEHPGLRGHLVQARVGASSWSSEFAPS

With `COC[C@H]1CCCN1c1cc(NC(C)=O)nc(-n2nc(C)cc2C)n1` the Activity [1] was “Active”, the IC50 [2] was > 50000 nM and the IC50 [3] was > 50000 nM. It also gave a Kp at 2 h [4] of 0.37, a Tmax [5] of 54 min and a Ratio [6] of 0.7. For the same molecule, the concentration at 2 h [7] was 1060 ng/mL, the concentration at 2 h [8] was 488 ng/g and the concentration at 1 h [9] was 1600 ng/mL. It also gave a Kp at 2 h [10] of 0.46, a concentration at 4 h [11] of 116 ng/g and a solubility [12] of 1000 µg/mL (≈ 2900 µM). The IC50 [13] was 85 nM, the logD [14] was 2.2 and the Kp at 4 h [15] was 0.33. The IC50 [16] was > 50000 nM, the IC50 [17] was > 50000 nM and the concentration at 2 h [18] was 34 ng/g. The concentration at 2 h [19] was 4640 ng/mL, the Kp at 2 h [20] was 0.45 and the Ki [21] was 145 nM. The inhibition at 10 µM [22] was 19%, the concentration at 2 h [23] was 2020 ng/g and the Activity [24] was “Active”. It also gave a concentration at 1 h [25] of 863 ng/g, a Kp at 1 h [26] of 0.51 and a Ki [27] of 19 nM. For the same molecule, the concentration at 2 h [28] was 98 ng/mL, the Ki [29] was 4.7 nM and the Ki [30] was 162 nM. The Papp [31] was 70 ×10⁻⁶ cm/s, the concentration at 4 h [32] was 333 ng/mL and the IC50 [33] was 11000 nM. For the same molecule, the Ki [34] was 48 nM and the Activity [35] was “Dose-dependent effect”.
